Reference: BindingDB's records for doi:10.1021/jm970389+ (Abbott Laboratories, 1998)

How the values were obtained:
[1] = The compound was evaluated for its binding affinity against PAF receptor in rabbit platelet
[2] = Binding potency against Platelet activating factor (PAF) receptor using [3H]C18-PAF as radioligand on rabbit platelet membranes

| SMILES | Ki [1] | Ki [2] |
| --- | --- | --- |
| CC(=O)OC[n+]1cccc([C@H]2SCc3c(C(=O)c4cn(C(=O)N(C)C)c5cc(-c6ccc(F)cc6)ccc45)ccn32)c1 [1-Acetoxymethyl-3-{(R)-7-[1-dimethylcarbamoyl-6-(4-fluoro-phenyl)-1H-indole-3-carbonyl]-1H-pyrrolo[1,2-c]thiazol-3-yl}-pyridinium; chloride] | 3.8 nM |  |
| Cc1nc2cnccc2n1Cc1ccc(C(=O)c2cn(C(=O)N(C)C)c3cccc(OC(=O)N(C)C)c23)cc1 [Dimethyl-carbamic acid 1-dimethylcarbamoyl-3-[4-(2-methyl-imidazo[4,5-c]pyridin-1-ylmethyl)-benzoyl]-1H-indol-4-yl ester] |  | 3.6 nM |
| Cc1[nH]c2ccccc2c1C(=O)c1ccc(Cn2c(C)nc3cnccc32)cc1 [[4-(2-Methyl-imidazo[4,5-c]pyridin-1-ylmethyl)-phenyl]-(2-methyl-1H-indol-3-yl)-methanone] |  | 48 nM |
| Cc1nc2cnccc2n1Cc1ccc(C(=O)c2c[nH]c3cc(-c4ccc(F)cc4)ccc23)cc1 [[6-(4-Fluoro-phenyl)-1H-indol-3-yl]-[4-(2-methyl-imidazo[4,5-c]pyridin-1-ylmethyl)-phenyl]-methanone] |  | 75 nM |
